In patent publication US6015820A, “4-Aryl-thio-pyridin-2(1H)-ones, medicines containing them and their uses in the treatment of illnesses linked to HIV” (priority 1995, dated 2000):

Legend:
[1] = system: HIV-1 LAI; assay: anti-HIV-1 activity: replication of HIV-1 LAI on CEM-SS cells; format: cell-based; settings: Table 2, HIV-1 LAI, CEM-SS cells; for IC50: Human immunodeficiency virus 1, 120 h, 5 days, read-out: IC50, anti-HIV-1 activity
Procedure: (§1) The CEM-SS and the HIV-1 resistant to Nevirapine (N119) carrying a point mutation at codon 181 of the IT, were supplied respectively by P. NARA and D. RICHMAN through the intermediary of the AIDS Research and Reference Reagent Program, Division of AIDS, NIAID, NIH (USA) (Catalogue references : No. 776 and No. 1392).
(§2) The virus production was measured by quantifying the activity of the inverse transcriptase associated with viral particles released into the culture supernatant. In short, cells were infected with 100 TCID50 for 30 minutes; after adsorption of the virus, unbound particles were removed by two washings and the cells were cultivated in the presence of different concentrations of the compounds tested for 5 days before determining the viral production. The concentration inhibiting 50% of the viral multiplication (IC50) came from the computer plot of the median effect of the dose effect results (Chou et al. Elsevier Science Publishers, Cambridge U.K. (1985), 19-28).

[2] = cytotoxicity on non-infected cells (MTT test); format: cell-based; settings: human; Table 2; non-infected CEM-SS cells, MTT, 5 days
Procedure: (§3) In parallel experiments, the cytotoxicity of the molecules was measured on non-infected cells, after an incubation of 5 days in the presence of these molecules, by using a […] titration (MTT test) based on the ability of the mitochondrial dehydrogenases of the living cells to reduce 3-(4,5-dimethylthiazol-2-yl)-2,5-diphenyltetrazolium bromide in formazan (Mosmann et al. J. Immunol. Methods ([…]), 65, 55-63). The concentration cytotoxic at 50% (CC50) is the concentration at which the DO540 has been reduced to half and is calculated by using the program mentioned above.

[3] = system: CEM-SS cells; assay: cytotoxicity on non-infected cells (MTT test); format: cell-based; settings: Table 3; non-infected cells, MTT, 5 days
Procedure: as §3

[4] = system: HIV-1 resistant to Nevirapine (N119); assay: microbe, parasite or virus in culture; format: cell-based; settings: for IC50: Human immunodeficiency virus 1, CEM-SS, read-out: IC50, strain resistant to Nevirapine; for SI (selectivity index): Table 3, strain resistant to Nevirapine
Procedure: as §1, with “The effects of the compounds were evaluated on the replication of HIV-1 (see Table 2) on CEM-SS cells (cell lines of the lymphocytic lineage) strongly infected with HIV-1 LAI as described by Moog et al. (Antiviral Research (1994), 24, 275-288). The” for “The”
as §2

[5] = target: T1, IT of recombinant HIV-1 (Human immunodeficiency virus type 1 group M subtype B, UniProt P03369); assay: inhibition of the inverse transcriptase of recombinant HIV-1; format: biochemical
T1 construct: purify the IT enzyme of the recombinant HIV-1; made in house; host or cells: yeast cells transformed with the pAB 24/IT-4 vector
Procedure: Yeast cells transformed with the pAB 24/IT-4 vector were used to purify the IT enzyme of the recombinant HIV-1 as described by Sallafranque-Andreola et al. (1989 Eur. J. Biochem. 184, 364-374).
(§4) Incubation was carried out at 37° C. for 10 minutes in the presence of various matrix-primers.
(§5) a) Poly C-oligo dG: the reaction mixture contained a final volume of 0.05 ml, Tris-HCl 50 mM pH 8.0, MgCl2 5 mM, dithiothreitol 4 mM, 0.48 A260 /ml of poly C-oligo dG (5:1), 1.0 μCi of [^3 H]dGTP (28 Ci/mmole), dGTP 2 μM, KCl 80 mM, 1 μg of bovine serum albumin and IT 20-50 nM.
(§6) b) Poly A-oligo dT: the same conditions as in a), except that 0.48 A260 /ml of poly A-oligo dT (5:1), 0.5 μCi of [^3 H]dTTP (46 Ci/mmole), dTTP 20 μM were used.
(§7) The reactions were stopped by adding in the cold 1 ml of 10% trichloroacetic acid plus sodium pyrophosphate 0.1 M. The precipitates were filtered through nitrocellulose membranes, washed with 2% trichloroacetic acid, dried and counted in a PPO/POPOP/toluene scintillation mixture.
(§8) All the compounds were dissolved in dimethyl#sulphoxide (DMSO). The test samples were prepared in the presence of the same final concentration of DMSO. IC50 is the concentration required to inhibit the activity of the IT of the recombinant HIV-1 by 50%.

[6] = target: IT of HIV-2 (Human immunodeficiency virus type 2 (ISOLATE ROD), UniProt P04584); assay: inhibition of the inverse transcriptase of HIV-2; format: biochemical; settings: at concentrations at which the IT of HIV-1 was well inhibited (FIG. 9)
Procedure: The system for the expression of the IT of HIV-2 in E.coli (B. Muller et al. (1991 J. Biol. Chem. 266, 14708-14713) was provided by Dr. R. Goody. The IT of the HIV-2 was purified in the same way as the IT of the HIV-1.
as §4, §5, §6, §7, §8

[7] = target: inverse transcriptase of HIV-1 (HIV-1 M:B_ARV2/SF2, UniProt P03369); assay: enzymatic kinetic analysis of IT inhibition (Lineweaver-Burk); format: biochemical
Procedure: FIG. 12 is a double-reciprocal (Lineweaver-Burk) representation of the inhibition of the inverse transcriptase of HIV-1 by compound 7c with the poly C-oligo dG as a matrix-primer couple and dGPT as substrate.
FIG. 13 is a double-reciprocal representation, similar to […], in which the poly A-oligo dT is used as a matrix-primer couple and dTTP as substrate.
as §4, §5, §6, §7

Sequence of IT of HIV-2 (P04584 613-1171): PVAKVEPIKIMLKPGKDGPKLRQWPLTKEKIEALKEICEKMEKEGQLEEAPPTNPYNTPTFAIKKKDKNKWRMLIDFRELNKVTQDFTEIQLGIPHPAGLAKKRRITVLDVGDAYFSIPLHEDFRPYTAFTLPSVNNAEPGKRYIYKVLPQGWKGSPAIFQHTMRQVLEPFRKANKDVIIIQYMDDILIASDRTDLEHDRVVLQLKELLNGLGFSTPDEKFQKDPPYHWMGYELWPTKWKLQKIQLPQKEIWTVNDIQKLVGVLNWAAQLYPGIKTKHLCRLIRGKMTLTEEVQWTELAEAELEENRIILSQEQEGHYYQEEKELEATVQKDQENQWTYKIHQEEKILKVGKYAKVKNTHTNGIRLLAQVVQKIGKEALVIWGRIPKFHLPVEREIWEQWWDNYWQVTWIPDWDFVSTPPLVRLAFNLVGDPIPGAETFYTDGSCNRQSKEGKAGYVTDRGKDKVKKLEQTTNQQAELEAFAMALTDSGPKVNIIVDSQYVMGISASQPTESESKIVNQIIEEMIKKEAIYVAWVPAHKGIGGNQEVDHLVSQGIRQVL

With `CCc1c(C)nc(O)c(N)c1Sc1cc(C)cc(C)c1` [Compound 8c, 3-amino-5-ethyl-6-methyl-4-(3', 5'-dimethylphenyl)thio-pyridin-2(1H)-one] the IC50 [1] was 14 nM, the “SI (selectivity index)” value [1] was over 714 and the CC50 at 120 h [2] was over 10000 nM. For the same molecule, the CC50 [3] was over 10000 nM, the IC50 [4] was 2100 nM and the “SI (selectivity index)” value [4] was over 4. The IC50 [5] was 15 nM, the “effect on activity of the IT of HIV-1 in HIV-1/HIV-2 comparison” value ([5]; FIG. 9) was “well inhibited” and the “IT inhibition according to matrix-primer couple” value ([5]; poly C-oligo dG compared with poly A-oligo dT (FIG. 9)) was “gave the same result”. For the same molecule, the “effect on activity of the IT of HIV-2” value [6] was “not affected”, the type of inhibition ([7]; as regards dGTP substrate, poly C-oligo dG matrix-primer (FIG. 12)) was “non-competitive” and the type of inhibition ([7]; poly A-oligo dT matrix-primer, dTTP substrate (FIG. 13)) was “competitive”.

In the case of `CCOC(=O)c1c(Sc2cc(C)cc(C)c2)c(CC)c(C)[nH]c1=O` [Compound 15, 5-ethyl-6-methyl-3-carbethoxy-4-(3', 5'-dimethylphenyl)thio-pyridin-2(1H)-one], the IC50 [1] is reported as 3 nM, the “SI (selectivity index)” value [1] is reported as over 3333 and the CC50 at 120 h [2] is reported as over 10000 nM. For the same molecule, the CC50 [3] was over 10000 nM, the IC50 [4] was 2200 nM and the “SI (selectivity index)” value [4] was over 4.5. For the same molecule, the IC50 [5] was 600 nM.
